Data reported in PMC8320071 (ACS Omega, 2021).
Each block holds one molecule with its values, some of them ahead of it.

What was measured:
[1] = target: T1, leucine aminopeptidase from Leishmania donovani (LdLAP) (Leishmania donovani, UniProt A0A3S7WXR2); experiment: Leu-AMC fluorogenic aminopeptidase assay with double-reciprocal plots; assay type: biochemical
T1 sequence (A0A3S7WXR2 1-565): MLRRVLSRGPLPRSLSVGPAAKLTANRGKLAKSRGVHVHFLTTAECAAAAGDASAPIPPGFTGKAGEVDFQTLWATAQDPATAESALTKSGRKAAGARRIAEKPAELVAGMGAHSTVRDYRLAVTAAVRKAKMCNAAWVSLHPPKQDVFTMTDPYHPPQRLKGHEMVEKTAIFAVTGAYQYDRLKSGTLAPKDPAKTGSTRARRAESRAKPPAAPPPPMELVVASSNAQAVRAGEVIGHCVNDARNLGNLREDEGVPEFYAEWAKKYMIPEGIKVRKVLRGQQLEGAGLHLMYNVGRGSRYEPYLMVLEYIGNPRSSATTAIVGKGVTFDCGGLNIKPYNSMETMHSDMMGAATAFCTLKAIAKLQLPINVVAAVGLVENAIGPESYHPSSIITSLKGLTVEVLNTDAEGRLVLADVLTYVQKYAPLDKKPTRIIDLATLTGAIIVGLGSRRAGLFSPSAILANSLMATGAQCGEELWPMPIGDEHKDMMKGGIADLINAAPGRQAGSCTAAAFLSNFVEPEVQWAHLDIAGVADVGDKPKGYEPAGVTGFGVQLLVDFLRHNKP

purified protein = substrate: Cc1cc(=O)oc2cc(NC(=O)[C@@H](N)CC(C)C)ccc12; experiment: purified protein; conditions: Mn(II)

Ki [1]: 2.7 nM
Molecule: CCCCC[C@H](CC(=O)NO)C(=O)N[C@H](C(=O)N1CCC[C@H]1CO)C(C)C [actinonin]

Ki [1]: 4.38 nM
Molecule: CC(C)C[C@H](NC(=O)[C@@H](O)[C@H](N)Cc1ccccc1)C(=O)O [bestatin]

B1: leucine aminopeptidase from Leishmania donovani (LdLAP) (Leishmania donovani) (protein)
chain: T1 sequence (A0A3S7WXR2 1-565)
Km (purified protein): 57.29 µM | kcat/Km (purified protein): 5820 M⁻¹ s⁻¹
